# Measurements reported in patent US20150274661A1, “INDOL-AMIDE COMPOUNDS AS BETA-AMYLOID INHBITORS” (Hoffmann-La Roche Inc., priority 2012, published 2015).
# Tested on: Aβ42 secretion
# Test: Cellular γ-secretase assay (inhibition of Aβ42 secretion)
# Assay type: cell-based
# Conditions: human neuroglioma H4 cells overexpressing human APP, 22 hours incubation
# Procedure, shortened: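 H4 neuroglioma cells overexpressing human APP were exposed to compounds (ten-point dilution series, 0.4% DMSO) for 22 h at 37°C. Secreted Aβ42 in supernatant measured by electrochemiluminescence sandwich immunoassay (ruthenylated BAP15 detection, biotinylated 6E10 capture on streptavidin beads). IC50 by nonlinear regression.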
Structure (SMILES),"EC50 (Homo sapiens, 22 h)",EC50
"O=C(Nc1cc(F)cc(F)c1)c1cc2cc(/C=C/N3C(=O)[C@@H]4CC[C@H]3C4)ccc2[nH]1 [Example 101, 5-[(E)-2-((1S,4R)-3-Oxo-2-aza-bicyclo[2.2.1]hept-2-yl)-vinyl]-1H-indole-2-carboxylic acid (3,5-difluoro-phenyl)-amide]",3830 nM,–
"CC(=O)N1CC[C@@H]([C@H](C)c2ccc3[nH]c(C(=O)Nc4cc(F)cc(F)c4)cc3c2)C1 [Example 122, 5-((S)-1-((S)-1-Acetylpyrrolidin-3-yl)ethyl)-N-(3,5-difluorophenyl)-1H-indole-2-carboxamide]",2070 nM,–
"CC(C)C(=O)N1CC[C@@H](c2ccc3[nH]c(C(=O)Nc4cc(F)cc(F)c4)cc3c2)C1 [Example 106, 5-((S)-1-Isobutyryl-pyrrolidin-3-yl)-1H-indole-2-carboxylic acid (3,5-difluoro-phenyl)-amide]",889 nM,–
"CC(C)N1CCCC(c2ccc3[nH]c(C(=O)Nc4ccc(F)cc4)cc3c2)C1 (centres unmarked) [Example 47, 5-(1-Isopropyl-piperidin-3-yl)-1H-indole-2-carboxylic acid (4-fluoro-phenyl)-amide]",1150 nM,–
"COCCN1CCC(c2ccc3[nH]c(C(=O)Nc4ccc(F)cc4)cc3c2)CC1 [Example 37, 5-[1-(2-Methoxy-ethyl)-piperidin-4-yl]-1H-indole-2-carboxylic acid (4-fluoro-phenyl)-amide]",1430 nM,–
"O=C(Nc1cccc(F)c1)c1cc2cc(C3CC(=O)N(Cc4ccccc4)C3=O)ccc2[nH]1 (centres unmarked) [Example 17, 5-(1-Benzyl-2,5-dioxopyrrolidin-3-yl)-N-(3-fluorophenyl)-1H-indole-2-carboxamide]",8460 nM,–
"CC(C)N1CCCC(c2ccc3[nH]c(C(=O)Nc4cc(F)cc(F)c4)cc3c2)C1 (centres unmarked) [Example 21, 5-(1-Isopropyl-piperidin-3-yl)-1H-indole-2-carboxylic acid (3,5-difluoro-phenyl)-amide]",177 nM,–
"CC(c1ccc2[nH]c(C(=O)Nc3cc(F)cc(F)c3)cc2c1)C1CCN(C(C)C)C1 (centres unmarked) [Example 93, N-(3,5-Difluorophenyl)-5-(1-(1-isopropylpyrrolidin-3-yl)ethyl)-1H-indole-2-carboxamide]",1190 nM,–
CC(C)S(=O)(=O)N1CCC(c2ccc3[nH]c(C(=O)Nc4cc(F)cc(F)c4)cc3c2)C1 (centres unmarked) [Example 107],–,628 nM
"CC(C)N1CCC(c2ccc3[nH]c(C(=O)Nc4cc(F)cc(F)c4)cc3c2)C1 (centres unmarked) [Example 11, 5-(1-Isopropyl-pyrrolidin-3-yl)-1H-indole-2-carboxylic acid (3,5-difluoro-phenyl)-amide]",321 nM,–
"O=C(Nc1cccc(F)c1)c1cc2cc([C@H]3CCCN(C4CC4)C3)ccc2[nH]1 [Example 116, (R)-5-(1-Cyclopropylpiperidin-3-yl)-N-(3-fluorophenyl)-1H-indole-2-carboxamide]",545 nM,–
"CCN1CCCC(c2ccc3[nH]c(C(=O)Nc4cccc(F)c4)cc3c2)C1 (centres unmarked) [Example 70, 5-(1-Ethylpiperidin-3-yl)-N-(3-fluorophenyl)-1H-indole-2-carboxamide]",810 nM,–
"CC(C)C1(c2ccc3[nH]c(C(=O)Nc4ccc(F)c(F)c4)cc3c2)CNC(=O)C1 (centres unmarked) [Example 18, 5-(3-Isopropyl-5-oxo-pyrrolidin-3-yl)-1H-indole-2-carboxylic acid (3,4-difluoro-phenyl)-amide]",2320 nM,–
"CC(C)N1CCC(c2ccc3[nH]c(C(=O)Nc4cccc(F)c4)cc3c2)C1 (centres unmarked) [Example 14, N-(3-Fluorophenyl)-5-(1-isopropylpyrrolidin-3-yl)-1H-indole-2-carboxamide]",519 nM,–
